Measurements reported in patent US20180207228A1, “PEPTIDE COMBINATIONS AND USES THEREOF FOR TREATING GRASS ALLERGY” (ALK-Abelló A/S, priority 2015, published 2018).
Entries after “also recorded” stand apart in the source; their conditions may differ. Where no end group is shown, it is not given here.

Columns and labels:
[1] = system: grass allergic donor derived T cell lines (TCL-02 DK-2); test: Cross-reactivity of homologue peptides, proliferation on TCL02-DK2 (Study XR1); assay type: cell-based, human; conditions: for experimental cross-reactivity: 2 μg/ml, TCL02-DK2, 21 donors
Protocol: To measure the experimental cross-reactivity the proliferation assay of Example 3 was carried out on 21 grass allergic donors (TCL02-DK2). […] Cross-reactivity to Phleum pratense peptides with either close (Lolium perenne (Lol p)) or distant (Phalaris aquatica (Pha a), Cynodon dactylon (Cyn d)) species was experimentally investigated.
For analysing the cross-reactivity data, it was investigated if a donor responds to both native and homologue peptide, XY correlation plots were made where the donor responses to native peptides were plotted versus the donor responses to homologues. […] If less than five donors were responding to the parent peptides, then the data was considered to be in-conclusive, and were thus labelled with “-”. For some of the peptides the analysis was further supported by performing a Spearman r-Non Parametric test (data not shown).
Further the magnitude of T cell response from a parent peptide as defined herein and homologue response were plotted in a XY plot by using GraphPad Prism 6.
To measure the experimental cross-reactivity, the proliferation assay of Example 3 was carried out on 21 grass pollen allergic donors (TCL02-DK2, Study XR1) and 20 grass pollen allergic donors (TCL03−DK1+DK2, Study XR2). […] In Study XR1, Cross-reactivity to Phleum pratense peptides with either close (Lolium perenne-Lol p) or distant ([…]-Pha a, Cynodon dactylon-Cyn d) species was experimentally investigated. In Study XR1, 67 homologue peptides corresponding to 41 native Phleum pratense peptides were investigated together with the 41 Phleum pratense peptides at a concentration of 2 μg/ml. Similarly, study XR2 was carried out on 20 grass pollen allergic donors where donor derived TCL-03 lines were used to investigate Phleum pratense cross-reactivity to Poa pratensis (Poa p), Dactylis glomerata (Dac g), Festuca pratensis (Fes p), Paspalum notatum (Pas n), Sorghum halepense (Sor h), Lolium perenne (Lol p), Phalaris aquatica (Pha a) and Cynodon dactylon (Cyn d).

[2] = Peptide solubility by visual inspection; assay type: physicochemical; conditions: for Visual inspection: first solubility screening, TFA salts, 1-7 mg/mL solutions in DMSO; for Visual inspection after 60 min pH 7 / Visual inspection after centrifugation pH 7: 250 mM D-Mannitol and 25 mM sodium phosphate
Protocol: Water (pH 3-5) • 2. 250 mM D-Mannitol and 25 mM sodium acetate, pH 4.5 • 3. 250 mM D-Mannitol and 25 mM sodium phosphate, pH 7.0 • 4. […] Water (pH 3-5) • 2. 250 mM D-Mannitol and 25 mM sodium acetate, pH 4.5 • 3. 250 mM D-Mannitol and 25 mM sodium phosphate, pH 7.0 • 4. […] A subset of the peptides was selected as candidate peptides for a final peptide mixture. […] During the solubility studies the peptide-containing solutions were inspected visually before and after filtration for turbidity, and presence of particles/aggregates. In addition, presence of turbidity/particles/aggregates was also detected by optical density (OD) or absorbance of filtered material, but might also be detected by size-exclusion chromatography. Furthermore, Sub-visual particles may also be detected by dynamic light scattering (DLS) analysis on filtered and non-filtered peptide containing solutions. Samples were furthermore subjected to centrifugation to allow for the possible visual inspection of pelleted material.

[3] = Extended solubility and short term stability study (visual, U-HPLC recovery, DLS, 90LS, UV-VIS, sum of scores); conditions: for solubility: pH 4.5
Protocol: For that purpose, the peptides were provided as acetate salts (produced by Innovagen® at a >10 mg scale of manufacturing). To take into account batch-to-batch variations, some peptides were tested from other batches of the manufacturer Innovagen®, as well as from another manufacturer (Almac) and from in-house production. Solubility experiments were performed on peptide in solution in concentrations ranging from 0.5 mg/mL to 3 mg/mL (dry matter)—with the following solvents: • Water • Acetate buffer, pH 4.5 (25 mM sodium acetate containing 250 mM D-Mannitol) • Phosphate buffer, pH 7.0 (25 mM sodium phosphate containing 250 mM D-Mannitol) • Glycine buffer, pH 8.5 (25 mM glycine containing 250 mM D-Mannitol)
The solubility of the peptides was initially investigated by visual inspection and U-HPLC recovery. Visual inspection included assessment of turbidity and presence of particles/aggregates of each peptide solution before and after centrifugation as well as visual inspection of pelleted material. The visual inspection were reported as “clear solution”, “very small precipitation only visible with a magnifier”, “precipitation visible/turbid solution” or “more precipitation/turbid solution”. Filtration of peptide solutions were conducted using syringe based filters containing a polyethersulfone (PES) membrane chemistry and a pore size of 0.2 μm. The amount of the peptide in the supernatant of a filtered sample was determined using U-HPLC with reverse phase chromatography and recovery were determined as described in Example 5.
Peptide solutions were investigated at a time point of 1 hour after production, but were also repeated at later time point (e.g. 24. 48 or 96 hours) to investigate the stability of the peptides.
Peptide solutions were investigated to determine the presence of turbidity/particles/aggregates by use of optical density (OD) and change in UV-VIS absorbance at a wavelength of 320 nm, of the filtrate. […] In addition or as an alternative, the amount of the peptide in the supernatant of a filtered sample was determined using U-HPLC as described above, with the exception that the recovery was determined by dividing the peak area of the filtered sample in relation to the peak area in the original solution prior to filtration. See also Example 5 for further details regarding UV-VIS, and recovery measured by U-HPLC.
The peptides were scored in relation to the outcome of the above mentioned tests: For each peptide in a given buffer and at a given concentration, a sum of test scores was calculated and the sum used to rank the peptides according to solubility: • 1. […] DLS peak 1 number 3 nm gave a score of 1, 3-10 nm gave a score of 2, 10-100 nm gave a score of 3, >100 nm gave a score of 4. • 5. 90LS at 400 nm: Intensity <450 gave a score of 1, <800 gave a score of 2, >800 gave a score of 3. • 6. UV-VIS change in absorbance at 320 nm within 24 hours: 0.01 gave a score of 1, ≤0.05 gave a score of 2, 0.0.2 gave a score of 3 and >0.2 gave a score of 4.

[4] = system: grass pollen allergic donor derived TCL-03 lines; test: Extended cross-reactivity study, proliferation on TCL03 DK1+DK2 (Study XR2), scoring; assay type: cell-based, human; conditions: study XR2; for Cross-reactivity score, Cyn d: homologue from Cyn d; for Cross-reactivity score, Dac g: homologue from Dac g; for Cross-reactivity score, Fes p: homologue from Fes p; for Cross-reactivity score, Lol p: homologue from Lol p; for Cross-reactivity score, Pas n: homologue from Pas n; for Cross-reactivity score, Pha a: homologue from Pha a; for Cross-reactivity score, Poa p: homologue from Poa p; for Cross-reactivity sum: scores of all species added; for Cross-reactivity/species: sum divided by the number of species measured
[5] = system: allergen specific T cells; test: T cell proliferation assay (72 h) on donor derived T cell lines (TCL02/TCL03); assay type: cell-based, human; conditions: single peptide
In short: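 CD8-depleted PBMCs from grass-allergic donors stimulated with natural grass allergen mix (nPhl p 1 0.5 μg/ml) to raise T cell lines; restimulated with irradiated APCs, allergens or PHA-P (0.5 μg/ml) plus rIL-2. Proliferation to overlapping 20-mer and selected 15-mer grass peptides tested with TCL02 (day 24) or TCL03 (day 34).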

[6] = 3 mg/mL, acetate salt, non-filtered
[7] = 3 mg/mL, acetate salt, non-filtered, after centrifugation

CC[C@H](C)[C@H](NC(=O)[C@@H](NC(=O)[C@H](CC(=O)O)NC(=O)[C@H](CCC(=O)O)NC(=O)[C@H](C)NC(=O)[C@H](CCC(=O)O)NC(=O)[C@@H](N)[C@@H](C)O)C(C)C)C(=O)N1CCC[C@H]1C(=O)N[C@@H](CCC(=O)O)C(=O)NCC(=O)N[C@@H](Cc1c[nH]c2ccccc12)C(=O)N[C@@H](CCCCN)C(=O)N[C@@H](C)C(=O)N[C@@H](CC(=O)O)C(=O)N[C@H](C(=O)N[C@@H](CO)C(=O)N[C@@H](Cc1ccc(O)cc1)C(=O)N[C@@H](CCC(=O)O)C(=O)N[C@@H](CO)C(=O)N[C@@H](CCCCN)C(=O)O)[C@@H](C)O [peptide 213]
experimental cross-reactivity [1]: showed cross-reactivity

AEVELRQHGSEEWEPLTKKG-OH [compound 063]
Visual inspection [2]: +

AGELELQFRRVKSKYPEGTK-OH [peptide 207]
solubility in all the test samples (concentrations and pH tested), all solubility tests [3]: good solubility | solubility in aqueous solutions and short-term stability [3]: sufficiently soluble | solubility [3]: acceptable solubility | solubility in aqueous solutions [2]: surprisingly good solubility in aqueous solutions | solubility, 1st round of solubility screening [2]: soluble | Visual inspection after 60 min pH 7 [2, 6]: tread + | Visual inspection after centrifugation pH 7 [2, 7]: + | Cross-reactivity score, Cyn d ([4]; score 0 to 7): 0 | Cross-reactivity score, Dac g ([4]; score 0 to 7): 3 | Cross-reactivity score, Fes p ([4]; score 0 to 7): 6 | Cross-reactivity score, Lol p ([4]; score 0 to 7): 6 | Cross-reactivity score, Pas n ([4]; score 0 to 7): 0.5 | Cross-reactivity score, Pha a ([4]; score 0 to 7): 6 | Cross-reactivity score, Poa p ([4]; score 0 to 7): 1 | Cross-reactivity sum [4]: 22.5 | Cross-reactivity/species [4]: 3.2 | T cell response in % of the donors tested [5]: ~40%

AGYTPAAPAGAEPAGKATTE-OH [peptide 228]
solubility in aqueous solutions and short-term stability [3]: sufficiently soluble | solubility [3]: acceptable solubility

AYRTAATAANAAPAN-OH [compound 353]
Cross-reactivity score ([1]; homologue of peptide 241 (Phl p 5), Table 51, based on results from Study XR1 (score 5 upgraded to 7)): 7 | cross-reactivity of homologue ([1]; homologues of peptide 241, Study XR1): very high cross-reactivity

Ac-STGGAYESYKFIPALEAAVK-NH2 [compound 262]
solubility by ranking scheme based on a sum of scores [3]: good solubility | solubility in aqueous solutions and short-term stability [3]: sufficiently soluble

Ac-STGGAYESYKFIPALEAAVK-OH [compound 260]
solubility by ranking scheme based on a sum of scores [3]: good solubility | solubility in aqueous solutions and short-term stability [3]: sufficiently soluble

EAKYDAYVATLSEALRIIAG-OH [peptide 233]
experimental cross-reactivity [1]: showed cross-reactivity; also recorded: good cross reactivity

GDEQKLRSAGELELQFRRVK-OH [compound 206]
solubility in all the test samples (concentrations and pH tested), all solubility tests [3]: good solubility | solubility in aqueous solutions and short-term stability [3]: sufficiently soluble | solubility [3]: acceptable solubility | solubility, 1st round of solubility screening [2]: soluble | Cross-reactivity score, Cyn d ([4]; score 0 to 7): 0 | Cross-reactivity score, Dac g ([4]; score 0 to 7): 2 | Cross-reactivity score, Fes p ([4]; score 0 to 7): 2 | Cross-reactivity score, Lol p ([4]; score 0 to 7): 2 | Cross-reactivity score, Pas n ([4]; score 0 to 7): 0 | Cross-reactivity score, Pha a ([4]; score 0 to 7): 1 | Cross-reactivity score, Poa p ([4]; score 0 to 7): 0.5 | Cross-reactivity score, Sor h ([4]; homologue from Sor h, score 0 to 7): 0.5 | Cross-reactivity sum [4]: 8 | Cross-reactivity/species [4]: 1

GFKAALAAAAGVPPADKYRT-OH [peptide 230]
experimental cross-reactivity [1]: showed cross-reactivity

GGASGYKDVDKPPFSGMTGS-OH [compound 006]
Visual inspection [2]: +

GRGSGSSFEIKSTKPEASSG-OH [compound 202]
experimental cross-reactivity [1]: showed cross-reactivity

HGSEEWEPLTKKGNVWEVKS-OH [compound 218]
experimental cross-reactivity [1]: showed cross-reactivity

KDKWIELKESWGAIWRIDTP-OH [peptide 210]
experimental cross-reactivity [1]: showed cross-reactivity

KEDFLGSLVKEIPPRLLYAK-OH [peptide 222]
solubility in aqueous solutions and short-term stability [3]: sufficiently soluble | solubility [3]: acceptable solubility | solubility, 1st round of solubility screening [2]: soluble | Visual inspection after 60 min pH 4.5 ([2]; 3 mg/mL, acetate salt, non-filtered, 250 mM D-Mannitol and 25 mM sodium acetate, pH 4.5): + particles, | Visual inspection after centrifugation pH 4.5 ([2]; 3 mg/mL, acetate salt, non-filtered, 250 mM D-Mannitol and 25 mM sodium acetate, pH 4.5, after centrifugation): ++ | Visual inspection after 60 min pH 7 [2, 6]: tread + | Visual inspection after centrifugation pH 7 [2, 7]: ++ | Cross-reactivity score, Cyn d ([4]; score 0 to 7): 1 | Cross-reactivity sum [4]: 1 | Cross-reactivity/species [4]: 1

SMGDDHFWAVRGGGGESFGI-OH [peptide 226]
solubility in aqueous solutions and short-term stability [3]: sufficiently soluble | solubility [3]: acceptable solubility | solubility, 1st round of solubility screening [2]: soluble

STGGAYESYKFIPALEAAVK-NH2 [compound 261]
solubility by ranking scheme based on a sum of scores [3]: good solubility | solubility in aqueous solutions and short-term stability [3]: sufficiently soluble

TPDKLTGPFTVRYTTEGGTK-OH [compound 024]
Visual inspection [2]: ++

VRYTTEGGTKTEAEDVIPEG-OH [peptide 212]
solubility in aqueous solutions and short-term stability [3]: sufficiently soluble | solubility [3]: acceptable solubility | solubility, 1st round of solubility screening [2]: soluble

VVAVDIKEKGKDKWIELKES-OH [compound 021]
Visual inspection [2]: ++

WLDAKSTWYGKPTGAGPKDN-OH [peptide 201]
solubility in aqueous solutions and short-term stability [3]: sufficiently soluble | solubility [3]: acceptable solubility | solubility, 1st round of solubility screening [2]: soluble
